# Assay results as given in US10030064B2, “Mammalian cell culture processes for protein production” (priority 2009, dated 2018).
# Tests used:
# Type in all cases: cell-based, Chinese hamster
# CHO cells [1] = assay: Fed-batch 7-L, 500-L and 5000-L bioreactors with dexamethasone in the feed medium (Example 5)
# Method: The CHO cell line used in this study was subcloned from DG44 parental cells and cultured in a proprietary growth medium.
# Bioreactor experiments were performed in 7-L, 500-L and 5000-L bioreactors with starting working volumes around 3 L, 300 L and 3000 L, respectively. All the bioreactor runs started at 37° C. and shifted to lower temperature when cells entered production phase in order to extend the cell culture period. pH, and dissolved oxygen were maintained at 7.05, and 50% air saturation. Agitation rates for 7-L, 500-L and 5000-L scales are 180, 75 and 60 rpm respectively. All the bioreactor experiments were conducted in a fed batch mode with daily feeding of a protein-free medium in order to maintain the glucose and other nutrients at certain levels. […] Samples were taken during the cell culture process and analyzed for cell density, cell viability, substrates and metabolites.
# The titer, sialic acid and HMW content assay were performed as described in the previous examples.
# CHO cells [2] = assay: Fed-batch 5-L bioreactor CHO culture: sialic acid content and N-linked sialylated species fraction; details: 1 μM DEX bolus addition
# Method: Bioreactor experiments were performed in 5-L bioreactors (Sartorius AG, Goettingen, Germany) with initial working volumes of 1.5 L. Agitation, pH, and dissolved oxygen were controlled at 150 rpm, 7.05, and 50% air saturation, respectively. Temperature was initially controlled at 37° C., but was shifted to a lower temperature during the culture to extend culture viability. The bioreactors were operated in fed-batch mode and were fed daily starting on day 3 with the proprietary feed medium to maintain adequate concentrations for glucose and other nutrients. Samples were taken during the cell culture process and analyzed for cell density, cell viability, substrates and metabolites.
# The sialic acid to recombinant protein molar ratio was calculated by determining the sialic acid and recombinant protein concentrations. Sialic acid (SA), including N-Acetylneuraminic (Neu5Ac) and N-glycolylneuraminic acid (Neu5Gc), was released by partial acid hydrolysis. The derivatives were then separated by reversed-phase HPLC to determine sialic acid content. The protein concentrations were determined by UV absorbance at 280 nm. Sialic acid content is reported as molar ratios, which is the total moles of Neu5Ac and Neu5Gc per mole of recombinant glycoprotein. Sialic acid contents are reported as normalized values, which are the actual values divided by an arbitrary value. The same divisor was used to normalize all sialic acid content data in the studies reported here.
# High-pH anion-exchange chromatography with pulsed amperometric detection (HPAEC-PAD) was used for the profiling of N-linked oligosaccharides (Base and Spellman 1990; Townsend and Hardy 1991) to provide information on site-specific N-linked glycosylation. N-linked oligosaccharides were cleaved from protein and separated on HPAEC-PAD into four domains based on the amount of sialic acid present. Domain I represents the asialo species. Domains II, III, and IV are sialylated species and represent monosialylated, disialylated, and tri- and tetrasialylated species, respectively. N-linked sialylated species fraction is reported as the percentage of N-linked sialylated species within the total N-linked oligosaccharides species, which includes both asialo and sialylated species. N-linked sialylated species fractions are reported as normalized values, which are the actual values divided by an arbitrary value. The same divisor was used to normalize all N-linked sialylated species fraction data in the studies reported here.
# The bioreactors were operated as described in the methods section.
# CHO cells [3] = assay: Fed-batch 10-L bioreactor CHO culture: VCD, viability, titer
# Method: Bioreactor experiments were performed in 10-L bioreactors (Sartorius Stedim Biotech, France) with starting working volumes of 5 L. Agitation, pH and dissolved oxygen were controlled at 150 rpm, 7.05, and 50% air saturation, respectively. Temperature was initially controlled at 37° C. and was shifted to lower temperature during the culture to extend the culture viability. The bioreactors were operated in a batch fed mode and were fed daily starting on day 3 with the proprietary feed medium to maintain adequate concentrations for glucose and other nutrients. Samples were taken during the cell culture process and analyzed for cell density, cell viability, substrates and metabolites.
# The eluted protein was quantified using a 10-level standard curve.
# Different from shake flask runs, bioreactor runs were extended to 14 days, the culture temperature was shifted to a lower temperature during the late exponential phase of the culture, and a proprietary feeding medium was used instead of feeding only glucose and glutamine.
# [4] = day 14, 1 μM DEX added on day 2
# [5] = day 14, 1 μM DEX added on day 7
structure (smiles),measurement,setting,value
"C[C@@H]1C[C@H]2[C@@H]3CCC4=CC(=O)C=C[C@]4(C)[C@@]3(F)[C@@H](O)C[C@]2(C)[C@@]1(O)C(=O)CO [DEX, dexamethasone]",Day 14 average viability,CHO cells [1]; 7-L scale,88%
same,Day 14 titer (normalized value),CHO cells [1]; 7-L scale,13.2
same,Peak sialic acid level (normalized value),CHO cells [1]; 7-L scale,16.0
same,Day 14 average viability,CHO cells [1]; 500-L scale,84%
same,Day 14 titer (normalized value),CHO cells [1]; 500-L scale,11.6
same,Peak sialic acid level (normalized value),CHO cells [1]; 500-L scale,18.0
same,Day 14 average viability,CHO cells [1]; 5000-L scale,91%
same,Day 14 titer (normalized value),CHO cells [1]; 5000-L scale,13.6
same,Peak sialic acid level (normalized value),CHO cells [1]; 5000-L scale,19.0
same,drop of sialic acid by the end of the runs,CHO cells [1]; all scales,approximately 2.6 units
same,change of sialylated fraction between days 8 to 14,CHO cells [2],−7.7%
same,change of total sialic acid content between days 8 to 14,CHO cells [2],−7.8%
same,normalized N-linked sialylated species fraction,CHO cells [2]; day 8,97.7±0.9
same,normalized total sialic acid content,CHO cells [2]; day 8,17.9±0.1
same,increase of N-linked sialylated species fraction vs control,CHO cells [2]; day 14,15.8%
same,increase of total sialic acid content vs control,CHO cells [2]; day 14,16.2%
same,normalized N-linked sialylated species fraction,CHO cells [2]; day 14,90.2±1.3
same,normalized total sialic acid content,CHO cells [2]; day 14,16.5±0.1
same,maximum cell density,"CHO cells [3]; 1 μM DEX added on either day 2 or day 7, day 8",approximately 8.3 ×10^6 cell/mL
same,Cell viability,"CHO cells [3]; day 6, all conditions",94%
same,Normalized protein titer,"CHO cells [3]; day 7, prior to the maximum VCD",approximately 5.5
same,increase of day 14 normalized titer vs without DEX,CHO cells [3]; day 14,20%
same,Final VCD,CHO cells [3]; [4],4.1 ×10^6 cell/mL
same,percent viability,CHO cells [3]; [4],55%
same,Final VCD,CHO cells [3]; [5],3.5 ×10^6 cell/mL
same,percent viability,CHO cells [3]; [5],39%
same,harvest normalized titer,"CHO cells [3]; day 14, both bioreactors with DEX",12.5
